Molecules are shown by their SMILES.

The subject of this assay is MV-4-11 cells. Nature of the assay: Gene expression microarray analysis (Affymetrix PrimeView) and GSEA. The class given is cell-based, human. Conditions: ProbeSet 11732306_x_at; LIST D. Also on record: RFU PODN (11730768_x_at) / Fold change /veh PODN (11730768_x_at) / RFU LINC00158 (11744669_a_at) / Fold change /veh LINC00158 (11744669_a_at) / RFU DUSP10 (11751237_a_at) / Fold change /veh DUSP10 (11751237_a_at) / RFU ID3 (11757404_x_at) / Fold change /veh ID3 (11757404_x_at) / RFU PLEKHG5 (11737974_s_at) / Fold change /veh PLEKHG5 (11737974_s_at) / RFU LRRC4B (11730491_at) / Fold change /veh LRRC4B (11730491_at) / RFU GIMAP4 (11747438_a_at) / Fold change /veh GIMAP4 (11747438_a_at) / RFU KRT8 (11758183_x_at) / Fold change /veh KRT8 (11758183_x_at) / RFU CNN1 (11734310_a_at) / Fold change /veh CNN1 (11734310_a_at) / RFU VPS37D (11726825_at) / Fold change /veh VPS37D (11726825_at) / RFU C10orf10 (11716522_x_at) / Fold change /veh C10orf10 (11716522_x_at) / RFU KIR2DL2 /// KIR2DL4 /// KIR2DL5A /// KIR2DL5B /// KIR2DS1 /// KIR2DS2 /// KIR2DS3 /// KIR2DS4 /// KIR3DL3 /// KIR3DL3 /// KIR3DS1 (11738374_at) / Fold change /veh KIR2DL2 /// KIR2DL4 /// KIR2DL5A /// KIR2DL5B /// KIR2DS1 /// KIR2DS2 /// KIR2DS3 /// KIR2DS4 /// KIR3DL3 /// KIR3DL3 /// KIR3DS1 (11738374_at) / RFU C1QL1 (11718748_at) / Fold change /veh C1QL1 (11718748_at) / RFU TMPRSS4 (11747572_a_at) / Fold change /veh TMPRSS4 (11747572_a_at) / RFU HAMP (11756126_x_at) / Fold change /veh HAMP (11756126_x_at) / RFU RNFT2 (11725882_a_at) / Fold change /veh RNFT2 (11725882_a_at) / RFU NR4A2 (11747474_a_at) / Fold change /veh NR4A2 (11747474_a_at) / RFU ABCC12 (11746883_a_at) / Fold change /veh ABCC12 (11746883_a_at) / RFU TMEM136 (11760407_x_at) / Fold change /veh TMEM136 (11760407_x_at) / RFU CLDN22 /// WWC2 (11732394_at) / Fold change /veh CLDN22 /// WWC2 (11732394_at) / RFU HLA-DPB1 (11760878_x_at) / Fold change /veh HLA-DPB1 (11760878_x_at) / RFU SPINT1 (11716480_a_at) / Fold change /veh SPINT1 (11716480_a_at) / RFU GAP43 (11754022_s_at) / Fold change /veh GAP43 (11754022_s_at) / RFU A4GNT (11735810_at) / Fold change /veh A4GNT (11735810_at) / RFU PRB3 (11715151_x_at) / Fold change /veh PRB3 (11715151_x_at) / RFU TUBB4B (11761932_at) / Fold change /veh TUBB4B (11761932_at) / RFU CAPN14 (11732068_a_at) / Fold change /veh CAPN14 (11732068_a_at) / RFU TMCC2 (11721928_a_at) / Fold change /veh TMCC2 (11721928_a_at) / RFU IRGQ (11745062_a_at) / Fold change /veh IRGQ (11745062_a_at) / RFU FAM174B (11720279_a_at) / Fold change /veh FAM174B (11720279_a_at) / RFU TMPRSS4 (11748680_a_at) / Fold change /veh TMPRSS4 (11748680_a_at) / RFU FAM212B (11763350_a_at) / Fold change /veh FAM212B (11763350_a_at) / RFU PLEKHG5 (11743358_a_at) / Fold change /veh PLEKHG5 (11743358_a_at) / RFU ZSCAN30 (11745921_a_at) / Fold change /veh ZSCAN30 (11745921_a_at) / RFU CMKLR1 (11741424_a_at) / Fold change /veh CMKLR1 (11741424_a_at) / RFU LOC101060620 /// MAPK8IP1 (11723275_at) / Fold change /veh LOC101060620 /// MAPK8IP1 (11723275_at) / RFU SPTSSB (11747773_x_at) / Fold change /veh SPTSSB (11747773_x_at) / RFU PRSS12 (11739890_at) / Fold change /veh PRSS12 (11739890_at) / RFU BIN1 (11741810_x_at) / Fold change /veh BIN1 (11741810_x_at) / RFU WNT11 (11732464_a_at) / Fold change /veh WNT11 (11732464_a_at) / RFU C10orf10 (11716521_a_at) / Fold change /veh C10orf10 (11716521_a_at) / RFU C5orf56 (11738089_at) / Fold change /veh C5orf56 (11738089_at) / RFU CYB561 (11721691_x_at) / Fold change /veh CYB561 (11721691_x_at) / RFU ANKRD19P (11752326_a_at) / Fold change /veh ANKRD19P (11752326_a_at) / RFU OR2T12 /// OR2T33 /// OR2T8 (11738714_s_at) / Fold change /veh OR2T12 /// OR2T33 /// OR2T8 (11738714_s_at) / RFU VCAN (11748164_a_at) / Fold change /veh VCAN (11748164_a_at) / RFU JSRP1 (11732532_at) / Fold change /veh JSRP1 (11732532_at) / RFU KRTAP10-11 (11738290_x_at) / Fold change /veh KRTAP10-11 (11738290_x_at) / RFU MYO3A (11730013_a_at) / Fold change /veh MYO3A (11730013_a_at) / RFU EBF3 (11725865_a_at) / Fold change /veh EBF3 (11725865_a_at) / RFU CAMK2N1 (11719241_x_at) / Fold change /veh CAMK2N1 (11719241_x_at) / RFU C5orf56 (11738088_a_at) / Fold change /veh C5orf56 (11738088_a_at) / RFU OLFML3 (11715873_a_at) / Fold change /veh OLFML3 (11715873_a_at) / RFU LOC100653217 /// NTM (11731650_a_at) / Fold change /veh LOC100653217 /// NTM (11731650_a_at) / RFU MAPK11 (11762145_a_at) / Fold change /veh MAPK11 (11762145_a_at) / RFU FIZ1 (11724087_x_at) / Fold change /veh FIZ1 (11724087_x_at) / RFU OASL (11726364_x_at) / Fold change /veh OASL (11726364_x_at) / RFU SOX15 (11748057_x_at) / Fold change /veh SOX15 (11748057_x_at) / RFU CD79A (11719716_a_at) / Fold change /veh CD79A (11719716_a_at) / RFU HIST1H1D (11736915_at) / Fold change /veh HIST1H1D (11736915_at) / RFU CASKIN2 (11723855_a_at) / Fold change /veh CASKIN2 (11723855_a_at) / RFU LOC730098 (11760151_x_at) / Fold change /veh LOC730098 (11760151_x_at) / RFU OR4N2 (11742367_at) / Fold change /veh OR4N2 (11742367_at) / RFU PRRT2 (11749266_a_at) / Fold change /veh PRRT2 (11749266_a_at) / RFU SNX32 (11753110_a_at) / Fold change /veh SNX32 (11753110_a_at) / RFU CDHR5 (11726645_a_at) / Fold change /veh CDHR5 (11726645_a_at) / RFU RCAN1 (11760418_a_at) / Fold change /veh RCAN1 (11760418_a_at) / RFU FAM167A (11723789_a_at) / Fold change /veh FAM167A (11723789_a_at) / RFU FAM26E (11764081_at) / Fold change /veh FAM26E (11764081_at) / RFU ISYNA1 (11749810_s_at) / Fold change /veh ISYNA1 (11749810_s_at) / RFU ACY1 (11761880_at) / Fold change /veh ACY1 (11761880_at) / RFU 11764098_at / Fold change /veh 11764098_at / RFU SAMD14 (11745864_x_at) / Fold change /veh SAMD14 (11745864_x_at) / RFU NPB (11741838_a_at) / Fold change /veh NPB (11741838_a_at) / RFU TMPRSS6 (11731388_a_at) / Fold change /veh TMPRSS6 (11731388_a_at) / RFU KRTAP10-2 (11738614_at) / Fold change /veh KRTAP10-2 (11738614_at) / RFU ARHGAP8 /// PRR5-ARHGAP8 (11727945_x_at) / Fold change /veh ARHGAP8 /// PRR5-ARHGAP8 (11727945_x_at) / RFU KRTAP5-7 /// NADSYN1 (11734609_at) / Fold change /veh KRTAP5-7 /// NADSYN1 (11734609_at) / RFU RASL12 (11751679_a_at) / Fold change /veh RASL12 (11751679_a_at) / RFU CDKN2B (11736163_a_at) / Fold change /veh CDKN2B (11736163_a_at) / RFU PRF1 (11729649_at) / Fold change /veh PRF1 (11729649_at) / RFU, ZNF638 /// ZNF638-IT1 / Fold change vs veh, ZNF638 /// ZNF638-IT1 / RFU, PANK3 / Fold change vs veh, PANK3 / RFU, SH3YL1 / Fold change vs veh, SH3YL1 / RFU, ZEB2 / Fold change vs veh, ZEB2 / RFU, NRIP1 / Fold change vs veh, NRIP1 / RFU, PTTG1IP / Fold change vs veh, PTTG1IP / RFU, CAPN2 / Fold change vs veh, CAPN2 / RFU, MED14 / Fold change vs veh, MED14 / RFU, SNORA58 / Fold change vs veh, SNORA58 / RFU, C1orf63 / Fold change vs veh, C1orf63 / RFU, LRRFIP1 / Fold change vs veh, LRRFIP1 / RFU, NDUFAF7 / Fold change vs veh, NDUFAF7 / RFU, SLC12A2 / Fold change vs veh, SLC12A2 / RFU, IBTK / Fold change vs veh, IBTK / RFU, ESF1 / Fold change vs veh, ESF1 / Fold change vs veh, TMEM50B / RFU, TAOK1 / Fold change vs veh, TAOK1 / RFU, ACBD3 / Fold change vs veh, ACBD3 / RFU, TMA16 / Fold change vs veh, TMA16 / RFU, RWDD3 / Fold change vs veh, RWDD3 / RFU, BCAT1 / Fold change vs veh, BCAT1 / RFU, EDEM3 / Fold change vs veh, EDEM3 / RFU, TMEM33 / Fold change vs veh, TMEM33 / RFU, WDR75 / Fold change vs veh, WDR75 / RFU, AHCTF1 / Fold change vs veh, AHCTF1 / RFU, TFRC / Fold change vs veh, TFRC / RFU, ZDHHC17 / Fold change vs veh, ZDHHC17 / RFU, NOM1 / Fold change vs veh, NOM1 / RFU, ARL8B / Fold change vs veh, ARL8B / RFU, ZBTB11 / Fold change vs veh, ZBTB11 / RFU, TAMM41 / Fold change vs veh, TAMM41 / RFU, KIAA1704 /// LOC100996395 / Fold change vs veh, KIAA1704 /// LOC100996395 / RFU, ING1 / Fold change vs veh, ING1 / RFU, TRMT61B / Fold change vs veh, TRMT61B / RFU, FUBP3 / Fold change vs veh, FUBP3 / RFU, TP53 / Fold change vs veh, TP53 / RFU, TNKS2 / Fold change vs veh, TNKS2 / RFU, ZFP14 / Fold change vs veh, ZFP14 / RFU, ACTR2 / Fold change vs veh, ACTR2 / RFU, PPP3R1 / Fold change vs veh, PPP3R1 / RFU, PIK3R1 / Fold change vs veh, PIK3R1 / RFU, HNRNPA1 / Fold change vs veh, HNRNPA1 / RFU, RNF170 / Fold change vs veh, RNF170 / RFU, ZNF28 / Fold change vs veh, ZNF28 / RFU, RNGTT / Fold change vs veh, RNGTT / RFU, OGT / Fold change vs veh, OGT / RFU, BRD1 / Fold change vs veh, BRD1 / RFU, MARS / Fold change vs veh, MARS / RFU, ZNF655 / Fold change vs veh, ZNF655 / RFU, FAHD1 / Fold change vs veh, FAHD1 / RFU, BDP1 / Fold change vs veh, BDP1 / RFU, LRRCC1 / Fold change vs veh, LRRCC1 / RFU, ARID1A / Fold change vs veh, ARID1A / RFU, ZNF146 / Fold change vs veh, ZNF146 / RFU, ZNF330 / Fold change vs veh, ZNF330 / RFU, GPN3 / Fold change vs veh, GPN3 / RFU, C9orf123 / Fold change vs veh, C9orf123 / RFU, N4BP2L2 / Fold change vs veh, N4BP2L2 / RFU, ARFIP1 / Fold change vs veh, ARFIP1 / RFU, FAM179B / Fold change vs veh, FAM179B / RFU, BCL10 / Fold change vs veh, BCL10 / RFU, UHRF1BP1L / Fold change vs veh, UHRF1BP1L / RFU, BET1 / Fold change vs veh, BET1 / RFU, CNOT2 / Fold change vs veh, CNOT2 / RFU, ZNF268 / Fold change vs veh, ZNF268 / Fold change vs veh, ZNF507 / RFU, DGCR2 / Fold change vs veh, DGCR2 / RFU, WDSUB1 / Fold change vs veh, WDSUB1 / Fold change vs veh, HSP90B1 /// MIR3652 / RFU, ADSS / Fold change vs veh, ADSS / RFU, GK / Fold change vs veh, GK / RFU, ZNF148 / Fold change vs veh, ZNF148 / RFU, TAF9 / Fold change vs veh, TAF9 / RFU, SLC1A5 / Fold change vs veh, SLC1A5 / RFU, SLMO2 / Fold change vs veh, SLMO2 / RFU, ABCC4 / Fold change vs veh, ABCC4 / RFU, LOC101060439 /// RAP1B / Fold change vs veh, LOC101060439 /// RAP1B / RFU, RFX7 / Fold change vs veh, RFX7 / RFU, GTPBP10 / Fold change vs veh, GTPBP10 / RFU, CNEP1R1 / Fold change vs veh, CNEP1R1 / RFU, BIVM-ERCC5 /// ERCC5 / Fold change vs veh, BIVM-ERCC5 /// ERCC5 / RFU, ILF3 / Fold change vs veh, ILF3 / RFU 11762660_at / Fold change /veh 11762660_at / RFU VCAN (11757783_s_at) / Fold change /veh VCAN (11757783_s_at) / RFU DDX43 (11728927_at) / Fold change /veh DDX43 (11728927_at) / RFU KRT8 (11758188_x_at) / Fold change /veh KRT8 (11758188_x_at) / RFU NKD1 (11759106_at) / Fold change /veh NKD1 (11759106_at) / RFU SRD5A1 (11742802_a_at) / Fold change /veh SRD5A1 (11742802_a_at) / RFU TPSAB1 /// TPSB2 (11721975_s_at) / Fold change /veh TPSAB1 /// TPSB2 (11721975_s_at) / RFU GSTM3 (11746129_a_at) / Fold change /veh GSTM3 (11746129_a_at) / RFU IL23R (11737362_x_at) / Fold change /veh IL23R (11737362_x_at) / RFU TMEM51 (11727254_a_at) / Fold change /veh TMEM51 (11727254_a_at) / RFU PIWIL2 (11732686_x_at) / Fold change /veh PIWIL2 (11732686_x_at) / RFU ORM1 (11744905_x_at) / Fold change /veh ORM1 (11744905_x_at) / RFU CCDC152 (11743942_at) / Fold change /veh CCDC152 (11743942_at) / RFU ECM1 (11717891_a_at) / Fold change /veh ECM1 (11717891_a_at) / RFU IL23R (11748794_a_at) / Fold change /veh IL23R (11748794_a_at) / RFU TNFAIP8L3 (11732012_x_at) / Fold change /veh TNFAIP8L3 (11732012_x_at) / RFU MBOAT4 (11741988_at) / Fold change /veh MBOAT4 (11741988_at) / RFU 11764193_at / Fold change /veh 11764193_at / RFU TMEM53 (11763286_at) / Fold change /veh TMEM53 (11763286_at) / RFU MAGEB2 (11727129_at) / Fold change /veh MAGEB2 (11727129_at) / RFU TMEM200A (11744735_a_at) / Fold change /veh TMEM200A (11744735_a_at) / RFU CCDC152 (11751479_a_at) / Fold change /veh CCDC152 (11751479_a_at) / RFU FAM211A (11726209_a_at) / Fold change /veh FAM211A (11726209_a_at) / RFU RGS16 (11746705_a_at) / Fold change /veh RGS16 (11746705_a_at) / RFU VCAN (11755009_s_at) / Fold change /veh VCAN (11755009_s_at) / RFU RHOB (11743442_s_at) / Fold change /veh RHOB (11743442_s_at) / RFU RGS16 (11720943_a_at) / Fold change /veh RGS16 (11720943_a_at) / RFU RGS16 (11720944_at) / Fold change /veh RGS16 (11720944_at) / RFU, VPS4B / Fold change vs veh, VPS4B / RFU, CREB1 / Fold change vs veh, CREB1 / RFU, DNAJC13 / Fold change vs veh, DNAJC13 / RFU, GNAQ / Fold change vs veh, GNAQ / RFU, CDK5R1 / Fold change vs veh, CDK5R1 / RFU, ZRANB3 / Fold change vs veh, ZRANB3 / RFU, CUL4A / Fold change vs veh, CUL4A / RFU, CCNY / Fold change vs veh, CCNY / RFU, UFL1 / Fold change vs veh, UFL1 / RFU, COG3 / Fold change vs veh, COG3 / RFU, DIAPH2 / Fold change vs veh, DIAPH2 / RFU, SKA2 / Fold change vs veh, SKA2 / RFU, AFF3 / Fold change vs veh, AFF3 / RFU, LMF1 / Fold change vs veh, LMF1 / RFU, IPO11 / Fold change vs veh, IPO11 / RFU, DFFB / Fold change vs veh, DFFB / RFU, FOXP1 / Fold change vs veh, FOXP1 / RFU, CARD8 / Fold change vs veh, CARD8 / RFU, STRN3 / Fold change vs veh, STRN3 / RFU, ADK / Fold change vs veh, ADK / RFU, RASSF2 / Fold change vs veh, RASSF2 / RFU, WIPF1 / Fold change vs veh, WIPF1 / RFU, LARP1B / Fold change vs veh, LARP1B / RFU, RASA1 / Fold change vs veh, RASA1 / RFU, RB1 / Fold change vs veh, RB1 / RFU, PPFIA1 / Fold change vs veh, PPFIA1 / RFU, MAT2A / Fold change vs veh, MAT2A / RFU, CCT5 / Fold change vs veh, CCT5 / RFU, WDR92 / Fold change vs veh, WDR92 / RFU, CUX1 / Fold change vs veh, CUX1 / RFU, TTC7A / Fold change vs veh, TTC7A / RFU, TMEM135 / Fold change vs veh, TMEM135 / RFU, DEPTOR / Fold change vs veh, DEPTOR / RFU, CPM / Fold change vs veh, CPM / RFU, DNAJB6 / Fold change vs veh, DNAJB6 / RFU, CACNA2D3 / Fold change vs veh, CACNA2D3 / RFU, DTX4 / Fold change vs veh, DTX4 / RFU, TFCP2 / Fold change vs veh, TFCP2 / RFU, GMCL1 /// GMCL1P1 / Fold change vs veh, GMCL1 /// GMCL1P1 / RFU, AEBP2 / Fold change vs veh, AEBP2 / RFU, SNHG1 /// SNORD22 /// SNORD25 /// SNORD26 /// SNORD27 /// SNORD28 /// SNORD29 /// SNORD31 / Fold change vs veh, SNHG1 /// SNORD22 /// SNORD25 /// SNORD26 /// SNORD27 /// SNORD28 /// SNORD29 /// SNORD31 / Fold change (Aza/veh), C12orf56 (ProbeSet 11735607_a_at) / Fold change (ACY-1035/veh), C12orf56 (ProbeSet 11735607_a_at) / Fold change (Aza/veh), FGFR1OP (ProbeSet 11751329_s_at) / Fold change (ACY-1035/veh), FGFR1OP (ProbeSet 11751329_s_at) / Fold change (Aza/veh), VPS36 (ProbeSet 11739960_a_at) / Fold change (ACY-1035/veh), VPS36 (ProbeSet 11739960_a_at) / RFU SYPL1 (11715823_x_at) / Fold change /veh SYPL1 (11715823_x_at) / RFU IGFBP7 (11715501_s_at) / Fold change /veh IGFBP7 (11715501_s_at) / RFU REEP3 (11722064_at) / Fold change /veh REEP3 (11722064_at) / RFU IGLL1 (11728026_x_at) / Fold change /veh IGLL1 (11728026_x_at): dose or concentration left out as unconfirmed.

With `Nc1ccc(-c2cccs2)cc1NC(=O)c1ccc2c(c1)cc(C1CC1)n2CCN1CCOCC1` [ACY-1035], the “RFU, CREB1” value worked out at 287.35 RFU.

The values are drawn from paper PMC5218480 (PLoS ONE, 2017).
